molecular target: T1, FimH (Escherichia coli, UniProt Q1R2J4); format: cell-based; details: concentration reducing bacterial agglutination of guinea pig red blood cells by greater than 90%; UTI89 bacteria
T1 construct: endogenous in cells; host or cells: E. coli UTI89 whole bacteria, agglutinating guinea pig red blood cells
Procedure: Hemagglutination Inhibition Assay (HAI)
The hemagglutination inhibition (HAI) assay was performed with UTI89 bacteria and guinea pig red blood cells, as previously described (S. J. Hultgren, W. R. Schwan, A. J. Schaeffer, J. L. Duncan Infect. Immun. 1986, 54, 613-620 and Jarvis, C.; Han, Z.; Kalas, V.; Klein, R.; Pinkner, J. S.; Ford, B.; Binkley, J.; Cusumano, C. K.; Cusumano, Z.; Mydock-McGrane, L.; Hultgren, S. J.; Janetka, J. W., ChemMedChem 2016, 11, 367-373).
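Further: concentration in nM.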

SMILES	HAI titer EC > 90
Cc1cc(-c2cc(F)c(C3CC3)c(F)c2)ccc1[C@@H](O)[C@H]1O[C@H](CO)[C@@H](O)[C@H](O)[C@@H]1O [Example 53]	“++++” (<50 “++++”)
Cc1cc(-c2cc(C3CC3)ccc2F)ccc1[C@@H](O)[C@H]1O[C@H](CO)[C@@H](O)[C@H](O)[C@@H]1O [Example 54]	“+++” (50-200 “+++”)
Cc1cc(-c2cc(Cl)ccc2OC(F)(F)F)ccc1[C@@H](O)[C@H]1O[C@H](CO)[C@@H](O)[C@H](O)[C@@H]1O [Example 55]	“+++” (50-200 “+++”)
Cc1cc(-c2cc(Cl)c(C3CC3)cc2F)ccc1[C@@H](O)[C@H]1O[C@H](CO)[C@@H](O)[C@H](O)[C@@H]1O [Example 56]	“+++” (50-200 “+++”)
Cc1ccc(-c2ccc([C@@H](O)[C@H]3O[C@H](CO)[C@@H](O)[C@H](O)[C@@H]3O)c(C)c2)cc1F [Example 57]	“+++” (50-200 “+++”)
COc1cc(F)cc(-c2ccc([C@@H](O)[C@H]3O[C@H](CO)[C@@H](O)[C@H](O)[C@@H]3O)c(C(F)(F)F)c2)c1 [Example 58]	“++++” (<50 “++++”)
OC[C@H]1O[C@H]([C@H](O)c2ccc(-c3cc(F)cc(C(F)(F)F)c3)cc2C(F)(F)F)[C@@H](O)[C@@H](O)[C@@H]1O [Example 59]	“++++” (<50 “++++”)
Cc1cc(F)cc(-c2ccc([C@@H](O)[C@H]3O[C@H](CO)[C@@H](O)[C@H](O)[C@@H]3O)c(C)c2)c1 [Example 60]	“+++” (50-200 “+++”)
Cc1cc(-c2cc(F)cc(C3CC3)c2)ccc1[C@@H](O)[C@H]1O[C@H](CO)[C@@H](O)[C@H](O)[C@@H]1O [Example 62]	“+++” (50-200 “+++”)
COc1cc(-c2ccc([C@@H](O)[C@H]3O[C@H](CO)[C@@H](O)[C@H](O)[C@@H]3O)c(C)c2)cc(F)c1C [Example 63]	“++++” (<50 “++++”)
COc1cc(C)cc(-c2ccc([C@@H](O)[C@H]3O[C@H](CO)[C@@H](O)[C@H](O)[C@@H]3O)c(C)c2)c1 [Example 65]	“+++” (50-200 “+++”)
Cc1cc(-c2ccc(C(F)(F)F)c(C)c2)ccc1[C@@H](O)[C@H]1O[C@H](CO)[C@@H](O)[C@H](O)[C@@H]1O [Example 66]	“++++” (<50 “++++”)
Cc1cc(-c2ccc(C(F)(F)F)c(C(F)(F)F)c2)ccc1[C@@H](O)[C@H]1O[C@H](CO)[C@@H](O)[C@H](O)[C@@H]1O [Example 67]	“++++” (<50 “++++”)
Cc1cc(-c2ccc([C@@H](O)[C@H]3O[C@H](CO)[C@@H](O)[C@H](O)[C@@H]3O)c(C)c2)cc(C(F)(F)F)c1 [Example 68]	“++++” (<50 “++++”)
COc1ccc(-c2ccc([C@@H](O)[C@H]3O[C@H](CO)[C@@H](O)[C@H](O)[C@@H]3O)c(C)c2)cc1C(F)(F)F [Example 69]	“++++” (<50 “++++”)
Cc1cc(-c2cc(F)cc(F)c2F)ccc1[C@@H](O)[C@H]1O[C@H](CO)[C@@H](O)[C@H](O)[C@@H]1O [Example 70]	“++++” (<50 “++++”)
COc1c(F)cc(-c2ccc([C@@H](O)[C@H]3O[C@H](CO)[C@@H](O)[C@H](O)[C@@H]3O)c(C)c2)cc1Cl [Example 71]	“++++” (<50 “++++”)
Cc1cc(-c2cccc(C(F)(F)F)c2)ccc1[C@@H](O)[C@H]1O[C@H](CO)[C@@H](O)[C@H](O)[C@@H]1O [Example 75]	“+++” (50-200 “+++”)
COc1cc(-c2ccc([C@@H](O)[C@H]3O[C@H](CO)[C@@H](O)[C@H](O)[C@@H]3O)c(C)c2)ccc1C(F)(F)F [Example 76]	“++++” (<50 “++++”)
Cc1cc(-c2cccc(F)c2)ccc1[C@@H](O)[C@H]1O[C@H](CO)[C@@H](O)[C@H](O)[C@@H]1O [Example 77]	“+++” (50-200 “+++”)
CCOc1ccc(-c2ccc([C@@H](O)[C@H]3O[C@H](CO)[C@@H](O)[C@H](O)[C@@H]3O)c(C)c2)cc1F [Example 81]	“++++” (<50 “++++”)
COc1cc(F)c(-c2ccc([C@@H](O)[C@H]3O[C@H](CO)[C@@H](O)[C@H](O)[C@@H]3O)c(C)c2)cc1F [Example 82]	“++++” (<50 “++++”)

SMILES	HAI titer EC > 90
Cc1cc(-c2ccc(CN(C)C)c(F)c2)ccc1[C@@H](O)[C@H]1O[C@H](CO)[C@@H](O)[C@H](O)[C@@H]1O [Example 83]	“++++” (<50 “++++”)
Cc1cc(-c2cc(C)c(C)c(F)c2)ccc1[C@@H](O)[C@H]1O[C@H](CO)[C@@H](O)[C@H](O)[C@@H]1O [Example 84]	“++++” (<50 “++++”)
Cc1cc(-c2cc(F)cc(C(F)F)c2)ccc1[C@@H](O)[C@H]1O[C@H](CO)[C@@H](O)[C@H](O)[C@@H]1O [Example 85]	“++++” (<50 “++++”)
Cc1cc(-c2cc(C(F)F)cc(C(F)F)c2)ccc1[C@@H](O)[C@H]1O[C@H](CO)[C@@H](O)[C@H](O)[C@@H]1O [Example 86]	“++++” (<50 “++++”)
COc1cc(-c2ccc([C@@H](O)[C@H]3O[C@H](CO)[C@@H](O)[C@H](O)[C@@H]3O)c(C)c2)cc(F)c1C(F)(F)F [Example 87]	“++++” (<50 “++++”)
Cc1cc(-c2cc(C)c(F)c(F)c2)ccc1[C@@H](O)[C@H]1O[C@H](CO)[C@@H](O)[C@H](O)[C@@H]1O [Example 88]	“++++” (<50 “++++”)
Cc1cc(-c2cc(F)c(C(C)C)c(F)c2)ccc1[C@@H](O)[C@H]1O[C@H](CO)[C@@H](O)[C@H](O)[C@@H]1O [Example 89]	“++++” (<50 “++++”)
Cc1cc(-c2cc(OC(C)C)cc(C(F)(F)F)c2)ccc1[C@@H](O)[C@H]1O[C@H](CO)[C@@H](O)[C@H](O)[C@@H]1O [Example 90]	“+++” (50-200 “+++”)
CCCc1c(F)cc(-c2ccc([C@@H](O)[C@H]3O[C@H](CO)[C@@H](O)[C@H](O)[C@@H]3O)c(C)c2)cc1F [Example 92]	“++++” (<50 “++++”)
Cc1cc(-c2cc(F)c(OC(F)F)c(F)c2)ccc1[C@@H](O)[C@H]1O[C@H](CO)[C@@H](O)[C@H](O)[C@@H]1O [Example 96]	“++++” (<50 “++++”)
OC[C@H]1O[C@H]([C@H](O)c2ccc(-c3cc(F)c(F)c(F)c3)cc2C(F)(F)F)[C@@H](O)[C@@H](O)[C@@H]1O [Example 97]	“++++” (<50 “++++”)
Cc1cc(-c2ccc(F)cc2)ccc1[C@@H](O)[C@H]1O[C@H](CO)[C@@H](O)[C@H](O)[C@@H]1O [Example 98]	“+++” (50-200 “+++”)
Cc1cc(-c2ccc(Cl)cc2)ccc1[C@@H](O)[C@H]1O[C@H](CO)[C@@H](O)[C@H](O)[C@@H]1O [Example 99]	“+++” (50-200 “+++”)
Cc1cc(-c2ccc(C3CC3)cc2)ccc1[C@@H](O)[C@H]1O[C@H](CO)[C@@H](O)[C@H](O)[C@@H]1O [Example 100]	“+++” (50-200 “+++”)
COCc1c(F)cc(-c2ccc([C@@H](O)[C@H]3O[C@H](CO)[C@@H](O)[C@H](O)[C@@H]3O)c(C)c2)cc1F [Example 102]	“++++” (<50 “++++”)
C#Cc1c(F)cc(-c2ccc([C@@H](O)[C@H]3O[C@H](CO)[C@@H](O)[C@H](O)[C@@H]3O)c(C)c2)cc1F [Example 103]	“++++” (<50 “++++”)
Cc1cc(-c2cc(F)c(N(C)C)c(F)c2)ccc1[C@@H](O)[C@H]1O[C@H](CO)[C@@H](O)[C@H](O)[C@@H]1O [Example 104]	“++++” (<50 “++++”)
Cc1cc(-c2ccc(C(F)(F)F)cc2)ccc1[C@@H](O)[C@H]1O[C@H](CO)[C@@H](O)[C@H](O)[C@@H]1O [Example 105]	“+++” (50-200 “+++”)
COc1cc(-c2ccc([C@@H](O)[C@H]3O[C@H](CO)[C@@H](O)[C@H](O)[C@@H]3O)c(C)c2)cc(C(F)(F)F)c1F [Example 106]	“++++” (<50 “++++”)
Cc1cc(-c2cc(F)cc(N(C)C)c2)ccc1[C@@H](O)[C@H]1O[C@H](CO)[C@@H](O)[C@H](O)[C@@H]1O [Example 109]	“++++” (<50 “++++”)
Cc1cc(-c2cc(F)c(F)c(C(F)(F)F)c2)ccc1[C@@H](O)[C@H]1O[C@H](CO)[C@@H](O)[C@H](O)[C@@H]1O [Example 110]	“++++” (<50 “++++”)
